Like-named read-outs stand apart in the source and are kept apart here.

Series [1] can be described thus: cytotoxicity toward the human HepG2 cell line (CC50). The following applies: HepG2 cells.
Series [2] concerns multi-resistant K1 Plasmodium falciparum strain. Description: in vitro antiplasmodial activity, K1 strain (Table 1). The series is classed as cell-based.
In series [3] the test system is human HepG2 cell line. The arrangement: method as in PMID 17981462, PMID 19482476, PMID 19926173, PMID 21741131, PMID 21852132. The following applies: previously synthesized series (Table 2, entries 1-4); cited from earlier work.
The subject of series [4] is multi-resistant W2 or K1 Plasmodium falciparum strains. The arrangement: method as in PMID 17981462, PMID 19482476, PMID 19926173, PMID 21741131, PMID 21852132. The conditions noted are these: previously synthesized series (Table 2, entries 1-4); W2 or K1 strain; read-out: IC50 P. falc.; cited from earlier work.
The test system is the same in series [5]. Nature of the series: in vitro antiplasmodial activity, 2-trichloromethylquinazoline series (Table 2). The series is classed as cell-based. The conditions noted are these: for IC50: Plasmodium falciparum, read-out: IC50 P. falc.
The nature of the next series: in vitro. The following applies: human.
For series [6], the system named is human HepG2 cell line.
Setting [7] is: Plasmodium falciparum, P. falciparum K1 strain, highest tested concentration 10 µM, read-out: IC50 P fK1.
The mark [8] stands for this setting: P. falciparum K1 strain, highest tested concentration 10 µM, read-out: IC50 P fK1.

A word on the IC50: it is the midpoint of a concentration-inhibition curve. Usually melting point stands for the temperature, or range, at which the solid turns liquid. `O=S(=O)(Nc1nc(C(Cl)(Cl)Cl)nc2ccccc12)c1ccccc1F` [8i, 2-Fluoro-N-(2-trichloromethylquinazolin-4-yl)benzenesulfonamide] gave a melting point of 188 °C. Besides, the CC50 in series [1] came to 136 µM. In series [2] (setting [7]), the IC50 was above 10 µM.
In the case of `Fc1ccc(-c2nc(C(Cl)(Cl)Cl)nc3ccccc23)cc1` [C00001], in the series with human HepG2 cell line [3], the CC50 is above 125 µM. Besides, the IC50 in series [4] was 2.5 µM. The “SI (selectivity index)” value in series [5] (SI = CC50/IC50, previously synthesized series (Table 2, entries 1-4)) is above 50.
In turn, `O=S(=O)(Nc1nc(C(Cl)(Cl)Cl)nc2ccccc12)c1ccc(F)cc1` [8g, 4-Fluoro-N-(2-trichloromethylquinazolin-4-yl)benzenesulfonamide] returned a melting point above 260 °C. For the same compound, the CC50 in series [1] is 69.5 µM. Also, the IC50 in series [2] (setting [7]) is above 10 µM.
In turn, `Cc1ccc(S(=O)(=O)Nc2nc(C(Cl)(Cl)Cl)nc3ccccc23)cc1` [8b, 4-Methyl-N-(2-trichloromethylquinazolin-4-yl)benzenesulfonamide] displayed a melting point above 260 °C. The compound also showed a CC50 in series [1] of 68.7 µM. Besides, the IC50 in series [2] (setting [7]) is above 10 µM.
In series [1], `C[C@H]1c2cccc(O)c2C(=O)C2=C(O)[C@]3(O)C(=O)C(C(N)=O)=C(O)[C@@H](N(C)C)[C@@H]3[C@@H](O)[C@@H]21` [Doxycycline, reference compound] yielded a CC50 of 20 µM. For the same compound, the IC50 in series [2] (setting [7]) is 6 µM; in series [5] (Table 2, sulfonamide series and reference drugs), 6 µM.
For the compound `COc1ccc(S(=O)(=O)Nc2nc(C(Cl)(Cl)Cl)nc3ccccc23)cc1` [8c, 4-Methoxy-N-(2-trichloromethylquinazolin-4-yl)benzenesulfonamide], the melting point is 196 °C. In series [1], this compound gave a CC50 of 102 µM. The IC50 in series [2] (setting [7]) is above 10 µM.
For `O=S(=O)(Nc1nc(C(Cl)(Cl)Cl)nc2ccccc12)c1ccc(C(F)(F)F)cc1` [8m, N-(2-trichloromethylquinazolin-4-yl)-4-(trifluoromethyl)benzenesulfonamide], the melting point stood at 166 °C. The CC50 in series [1] was determined as 49 µM. The IC50 in series [2] (setting [7]) is above 10 µM.
In turn, `O=S(=O)(Nc1nc(C(Cl)(Cl)Cl)nc2ccccc12)c1cccs1` [8s, N-(2-trichloromethylquinazolin-4-yl)thiophene-2-sulfonamide] yielded a melting point of 191 °C. This compound also had a CC50 in series [1] of 121 µM. Further, the IC50 in series [2] (setting [7]) is above 10 µM.
The compound `O=S(=O)(Nc1nc(C(Cl)(Cl)Cl)nc2ccccc12)c1ccccc1C(F)(F)F` [8o, N-(2-trichloromethylquinazolin-4-yl)-2-(trifluoromethyl)benzenesulfonamide] had a melting point of 205 °C. Besides, the CC50 in series [1] turned out to be 73.8 µM. Besides, the IC50 in series [2] (setting [7]) was above 10 µM.
The corresponding values for `O=S(=O)(Nc1nc(C(Cl)(Cl)Cl)nc2ccccc12)c1ccc(Br)cc1` [8f, 4-Bromo-N-(2-trichloromethylquinazolin-4-yl)benzenesulfonamide] are above 260 °C, 57.4 µM and above 10 µM.
For `O=[N+]([O-])c1ccccc1S(=O)(=O)Nc1nc(C(Cl)(Cl)Cl)nc2ccccc12` [8l, 2-Nitro-N-(2-trichloromethylquinazolin-4-yl)benzenesulfonamide], in that order: above 260 °C, 126 µM and above 10 µM.
Regarding `O=S(=O)(Nc1nc(C(Cl)(Cl)Cl)nc2ccccc12)c1cccc(F)c1` [8h, 3-Fluoro-N-(2-trichloromethylquinazolin-4-yl)benzenesulfonamide], the melting point was 194 °C. The CC50 in series [1] was determined as 106 µM. Further, in series [2] (setting [7]), the IC50 was above 10 µM.
As to `CCN(CC)CCCC(C)Nc1ccnc2cc(Cl)ccc12` (stereo not shown) [Chloroquine, reference compound], the IC50 in series [2] (Plasmodium falciparum, K1, read-out: IC50 P fK1) turned out to be 0.6 µM; in series [5] it was 0.6 µM.
In turn, `O=[N+]([O-])c1cccc(S(=O)(=O)Nc2nc(C(Cl)(Cl)Cl)nc3ccccc23)c1` [8k, 3-Nitro-N-(2-trichloromethylquinazolin-4-yl)benzenesulfonamide] gave a melting point of 204 °C. The same compound had a CC50 in series [1] of 120 µM. Further, the IC50 in series [2] (setting [7]) was above 10 µM.
For `O=S(=O)(Nc1nc(C(Cl)(Cl)Cl)nc2ccccc12)c1ccc(Cl)cc1` [8e, 4-Chloro-N-(2-trichloromethylquinazolin-4-yl)benzenesulfonamide], in that order: above 260 °C, 71.1 µM and above 10 µM.
For `O=S(=O)(Nc1nc(C(Cl)(Cl)Cl)nc2ccccc12)c1ccc(-c2ccccc2)cc1` [8p, N-(2-trichloromethylquinazolin-4-yl)biphenyl-4-sulfonamide], in that order: 210 °C, 38.2 µM and above 10 µM.
Consider `O=S(=O)(Nc1nc(C(Cl)(Cl)Cl)nc2ccccc12)c1ccccc1` [8a, N-(2-Trichloromethylquinazolin-4-yl)benzenesulfonamide], for which the melting point was found to be 200 °C. In series [1], this compound registered a CC50 of 82 µM. Further, in series [2] (setting [7]), the IC50 is above 10 µM.
As for `COc1cccc2c1C(=O)c1c(O)c3c(c(O)c1C2=O)C[C@@](O)(C(=O)CO)C[C@@H]3O[C@H]1C[C@H](N)[C@H](O)[C@H](C)O1` [Doxorubicine], the CC50 in the series “in vitro” is 0.2 µM.
With `O=S(=O)(Nc1nc(C(Cl)(Cl)Cl)nc2ccccc12)c1cccc(C(F)(F)F)c1` [8n, N-(2-trichloromethylquinazolin-4-yl)-3-(trifluoromethyl)benzenesulfonamide], the melting point was 255 °C. The compound further registered a CC50 in series [1] of 75.1 µM. Further, the IC50 in series [2] (setting [7]) was above 10 µM.
As for `O=S(=O)(Nc1nc(C(Cl)(Cl)Cl)nc2ccccc12)c1ccc2ccccc2c1` [8q, N-(2-trichloromethylquinazolin-4-yl)naphtalene-2-sulfonamide], the IC50 in series [2] (setting [8]) is above 10 µM. For the same compound, the CC50 with human HepG2 cell line [6] stood at 48.8 µM.
Consider `O=S(=O)(Nc1nc(C(Cl)(Cl)Cl)nc2ccccc12)c1cccc2ccccc12` [8r, N-(2-trichloromethylquinazolin-4-yl)naphtalene-1-sulfonamide], for which the IC50 in series [2] (setting [8]) was above 10 µM. In addition, the CC50 with human HepG2 cell line [6] turned out to be 47.8 µM.
Regarding `N#Cc1ccc(S(=O)(=O)Nc2nc(C(Cl)(Cl)Cl)nc3ccccc23)cc1` [8d, 4-Cyano-N-(2-trichloromethylquinazolin-4-yl)benzenesulfonamide], the melting point was 204 °C. This compound also came in with a CC50 in series [1] of 73.8 µM. Further, the concentration for half-maximal inhibition (IC50) in series [2] (setting [7]) was above 10 µM.
The compound `O=[N+]([O-])c1ccc(S(=O)(=O)Nc2nc(C(Cl)(Cl)Cl)nc3ccccc23)cc1` [8j, 4-Nitro-N-(2-trichloromethylquinazolin-4-yl)benzenesulfonamide] registered a melting point of 250 °C. The compound also came in with a CC50 in series [1] of 88.3 µM. Further, the concentration for half-maximal inhibition (IC50) in series [2] (setting [7]) was above 10 µM.
`CS(=O)(=O)Nc1nc(C(Cl)(Cl)Cl)nc2ccccc12` [8t, N-(2-trichloromethylquinazolin-4-yl)methanesulfonamide] returned a melting point of 186 °C. In series [1], the CC50 was 241 µM. For the same compound, the IC50 in series [2] (setting [7]) is above 10 µM.

The values are drawn from paper PMC6269066, “A New Synthetic Route to Original Sulfonamide Derivatives in 2-Trichloromethylquinazoline Series: A Structure-Activity Relationship Study of Antiplasmodial Activity” (Molecules, 2012).
